Drawing on patent US11607384B2, “Lipid emulsified drug delivery systems for chemoprevention and treatment” (WESTERN UNIVERSITY OF HEALTH SCIENCES, priority 2017, dated 2023), this text covers IC50 and cell inhibition for four compounds.

Molecules are shown by their SMILES.

Assay [1] has as its system MIA-PaCa-2 pancreatic cancer cells. The assay can be described thus: Colorimetric MTS cytotoxicity assay in MIA-PaCa-2 cells. It counts as cell-based, Human. Conditions: for IC50: MIA-PaCa-2, 72 h. (Tetrazolium assays rely on reduction of a dye to a coloured formazan, in cell work by metabolically active cells.)
Protocol: (§1) Human PC cells MIA PaCa-2 and Panc-1 were obtained from American type culture collection (ATCC) (Rockville, Md.). Cells were maintained in Dulbecco's modified Eagle's medium (DMEM) containing 10% fetal bovine serum (FBS) obtained from ATCC. Cells were cultured at 37° C. in a humidified atmosphere of 5% CO2 and 95% air.
(§2) The cell viability assay was performed according to manufacturer's protocol with the Promega CellTitre 96 Aqueous MTS reagent (Madison, Wis., USA). Briefly, 7.5×10^3 cells were seeded in 96-well plates and incubated overnight. […] At the end of the incubation period, the growth medium was removed followed by addition of 100 μl media consisting of 20% MTS and 1% of phenazine methosulfate (PMS) and the mixture was incubated for 2 h at 37° C. MTS is bio-reduced by the cells into formazan which could be measured using a microplate reader at 490 nm. Thus, the quantity of formazan product measured by absorbance is directly proportional to the number of living cells in culture. IC50 values were determined using Graph Pad Prism software (San Diego, Calif., USA). All analysis was performed in triplicate and replicated.
A study to determine IC50 (inhibitory concentration to kill 50% of cancer cells) in in vitro cell line cultures of pancreatic cancer cell line was performed.
The cell viability assay was performed according to the manufacturer's protocol with the Promega CellTitre 96 Aqueous MTS reagent (Madison, Wis., USA). Briefly, 7.5×10^3 cells were seeded in 96-well plates and were incubated overnight. The cells were treated with different concentrations of treatment groups followed by incubation for a period of 72 hours. At the end of the incubation period, the growth medium was removed followed by addition of 100 μl media consisting of 20% MTS and 1% of phenazine methosulfate (PMS) and the mixture was incubated for 2 h at 37° C. MTS is bio-reduced by the cells into formazan which could be measured using a microplate reader at 490 nm. Thus, the quantity of formazan measured by the absorbance is directly proportional to the number of living cells in culture. […] All analysis was performed in triplicate.
(§3) The cytotoxicity of the various treatment groups were evaluated using a colorimetric MTS assay. The cell viability assay was performed according to the manufacturer's protocol with the Promega CellTitre 96 Aqueous MTS reagent (Madison, Wis., USA). Briefly, 7.5×10^3 cells were seeded in 96-well plates and were incubated overnight. The cells were treated with different concentrations of treatment groups followed by incubation for a period of 72 hours. At the end of the incubation period, the growth medium was removed followed by addition of 100 μl media consisting of 20% MTS and 1% of phenazine methosulfate (PMS) and the mixture was incubated for 2 h at 37° C. MTS is bio-reduced by the cells into formazan which could be measured using a microplate reader at 490 nm. Thus, the quantity of formazan measured by the absorbance is directly proportional to the number of living cells in culture.
Cytotoxicity was evaluated in Mia PaCa 2 pancreatic cancer cells using the colorimetric MTS assay, as described above.
A study to determine IC50 in in vitro cell line cultures of pancreatic cancer cell lines was performed. […] Cytotoxicity was evaluated using the colorometric MTS assay. The cell viability assay was performed according to the manufacturer's protocol with the Promega Cell Titre 96 Aqueous MTS reagent (Madison, Wis., USA). Briefly, 7.5×10^6 cells were seeded in 96-well plates and were incubated overnight. The cells were treated with different concentrations of treatment groups followed by incubation for a period of 72 h.
Assay [2] relates to Panc-1 pancreatic cancer cells. The assay can be described thus: Colorimetric MTS cytotoxicity assay in Panc-1 cells. It counts as cell-based, Human. Conditions: Panc-1, 72 h.
Protocol: as §1, §2, §3
The cell viability assay was performed according to the manufacturer's protocol with the Promega Cell Titre 96 Aqueous MTS reagent (Madison, Wis., USA). Briefly, 7.5×10^3 cells were seeded in 96-well plates and were incubated overnight. The cells were treated with different concentrations of treatment groups followed by incubation for a period of 72 h. At the end of the incubation period, the growth medium was removed followed by addition of 100 μl media consisting of 20% MTS and 1% of phenazine methosulfate (PMS) and the mixture was incubated for 2 h at 37° C. MTS is bio-reduced by the cells into formazan which could be measured using a microplate reader at 490 nm. Thus, the quantity of formazan measured by the absorbance is directly proportional to the number of living cells in culture.
A study to determine IC50 in in vitro cell line cultures of pancreatic cancer cell lines was performed. […] Cytotoxicity was evaluated using the colorometric MTS assay. […] MTS is bio-reduced by the cells into formazan which could be measured using a microplate reader at 490 nm. Thus, the quantity of formazan measured by the absorbance is directly proportional to the number of living cells in culture.
A study to determine IC50 in in vitro cell line cultures of pancreatic cancer cell lines was performed. […] Cytotoxicity was evaluated using the colorometric MTS assay.

A word on the IC50: it is the midpoint of a concentration-inhibition curve. Turning to `CCOC(=O)N1CCC(=C2c3ccc(Cl)cc3CCc3cccnc32)CC1` [LOR (free), Loratadine], the IC50 in assay [1] (Homo sapiens, Table 4, MTS) is 326 µM; in assay [2] (Homo sapiens, Table 9, MTS), 357 µM.
For the compound `Nc1ccn([C@@H]2O[C@H](CO)[C@@H](O)C2(F)F)c(=O)n1` [Gemcitabine], the IC50 was found to be 692 µM in assay [1] (Homo sapiens, Table 14, varied Gemcitabine, fixed LOR (free or system 2) 125 μM, Sulforaphane 5 μM) and 539 µM in assay [2] (Homo sapiens, Table 16, varied Gemcitabine, fixed LOR (free or system 2) 125 μM, Sulforaphane 5 μM).
With `C[S+]([O-])CCCCN=C=S` (centres unmarked) [Sulforaphane (free), Sulforaphane], the cell inhibition result in assay [1] (Mia PaCa 2, at the concentration of 5 μM) is “did not show any significant cell inhibition”. Moreover, the IC50 in assay [1] (Table 5, MTS, combinations with fixed free Sulforaphane 5 μM) stood at 92.2 µM; in assay [1] (Table 6, MTS, combinations with fixed free Sulforaphane 5 μM), 92.2 µM; in assay [2] (Table 10, MTS, LOR alone or in combination with free Sulforaphane), 99.6 µM; in assay [2] (Table 11, MTS, DES alone or in combination with free Sulforaphane), 99.6 µM.
As for `CC(=O)O[C@H]1C(=O)[C@@]2(C)[C@H]([C@H](OC(=O)c3ccccc3)[C@]3(O)C[C@H](OC(=O)[C@H](O)[C@@H](NC(=O)c4ccccc4)c4ccccc4)C(C)=C1C3(C)C)[C@]1(OC(C)=O)CO[C@@H]1C[C@@H]2O` [Paclitaxel], the IC50 in assay [1] (Homo sapiens, Table 18, varied Paclitaxel, fixed LOR (free or system 2) 125 μM, Sulforaphane 5 μM) was determined as 1.96 µM; in assay [2] (Homo sapiens, Table 20, varied Paclitaxel, fixed LOR (free or system 2) 125 μM, Sulforaphane 5 μM), 2.33 µM.
